IC50 and Ratio data for 1 molecule are collected here from US9085570B2, “Substituted benzamides and their uses” (The Board of Trustees of the Leland Stanford Junior …, priority 2010, dated 2015).

Bounds are passed on as bounds.

For one assay, the system named is RCC4. The assay can be described thus: XTT cell viability assay in RCC4 cells (VHL-deficient renal carcinoma). In kind it is cell-based. The conditions noted are these: Homo sapiens, 96 h, four days drug exposure. As for the experimental part:
(§1) Cell Culture. RCC4 parental and RCC4 with VHL-reintroduced (RCC4/VHL), SN12C and SN12C-CSCG-VHL shRNA were maintained in DMEM supplemented with 10% FCS.
(§2) Cell Viability Assays. For 2,3-bis[2-methoxy-4-nitro-5-sulfophenyl]-2H-tetrazolium-5-carboxanilide (XTT) assays, five thousand cells were plated in 96-well plates. The next day, vehicle (DMSO) or drug was added by serial dilution. Four days later, media were aspirated, XTT solution (0.3 mg/ml of XTT (Sigma), […] N-methyl dibenxopyrazine methyl sulfate (Simga) in phenol red-free media) was added, and the plates were incubated at 37° C. for 1-2 hours. Metabolism of XTT was quantified by measuring the absorbance at 450 nm IC50s were calculated using linear interpolation. For clonogenic survival assays, three hundred cells were plated per 60 mm tissue culture dish. The cells were allowed to attach overnight and then treated with vehicle or drug for 14 days. Colonies were fixed and stained with crystal violet (0.1% crystal violet in 95% ethanol). All conditions were measured in triplicate and each experiment was done in duplicate or triplicate. To determine necrosis, cells were treated with drug for a given time point. Media and cells were collected, centrifugated, and resuspended in 0.4% trypan blue (Invitrogen). Live and dead cells were counted on a hematocytometer.
(§3) The designation A reflects an IC50 of <1 nM; B reflects an IC50 ranging from 1 to 20 nM; and C is an IC50 of >20 nM. The designation “a” reflects a ratio of RCC4/RCC-VHL+ranging from 1 to ≦10; “b” reflects from 10 to ≦100; “c” reflects a ratio of >100. Compounds I-29 have an IC50 value of ≦10 μM when tested in the above assay.
For orientation: Tetrazolium dyes change colour on reduction, which living cells bring about.

Assay [1] concerns RCC4 with VHL-reintroduced (RCC4/VHL). The assay can be described thus: XTT cell viability assay in RCC4/VHL cells, selectivity ratio versus RCC4. In kind it is cell-based. To be noted: Ratio = IC50RCC4/VHL/IC50RCC4. As to the method:
as §1, §2, §3

Broadly, the IC50 is the concentration that inhibits the measured activity by half. Higher therefore signals lower potency. `O=C(Nc1cccnc1)c1ccc(CNS(=O)(=O)c2ccco2)cc1` [II-8, N-(3-Pyridinyl)-4-{[(2-furanylsulfonyl)amino]methyl}benzamide] showed an IC50 with RCC4 above 20 nM. Further, the Ratio result in assay [1] is “a (a ratio of RCC4/RCC-VHL+ranging from 1 to ≦10)”.
